# Source: patent publication US20250171438A1 (Agios Pharmaceuticals, Inc., priority 2022, published 2025)
# Molecular target: T1, human PAH with the R408W mutation (Homo sapiens, UniProt P00439, R408W)
# T1 construct: expressed in transfected cells
# T1 sequence (P00439 1-452 R408W): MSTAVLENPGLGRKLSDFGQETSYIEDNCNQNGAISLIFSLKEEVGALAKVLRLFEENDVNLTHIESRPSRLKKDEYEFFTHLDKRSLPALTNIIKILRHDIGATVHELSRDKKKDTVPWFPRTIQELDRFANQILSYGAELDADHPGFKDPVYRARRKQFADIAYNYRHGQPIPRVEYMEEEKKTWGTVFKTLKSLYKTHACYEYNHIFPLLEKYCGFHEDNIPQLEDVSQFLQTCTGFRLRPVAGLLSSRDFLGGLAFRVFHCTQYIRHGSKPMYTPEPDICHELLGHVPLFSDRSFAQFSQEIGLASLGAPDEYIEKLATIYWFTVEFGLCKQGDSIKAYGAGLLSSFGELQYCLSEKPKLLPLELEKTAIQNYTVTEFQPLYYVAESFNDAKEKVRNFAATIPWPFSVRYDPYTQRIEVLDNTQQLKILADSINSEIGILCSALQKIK
# Experiment: Cell Based Phenylalanine Flux Assay
# Conditions: A375 cells expressing human R408W PAH; 24 hrs with compound; 13C-Tyrosine by LC-MS; average where tested multiple times; read-out: AC50
row,SMILES,AC50
1,CC(=O)N1CCc2[nH]cnc2C1c1nc2ccccc2s1 (centres unmarked),> 5 µM
2,O=C(Cc1nncs1)N1CCc2[nH]cnc2C1c1nc2ccccc2s1 (centres unmarked) [listing 1 of 2 here],> 5 µM
3,Cc1nnc(CCC(=O)N2CCc3[nH]cnc3C2c2nc3c(F)cccc3s2)s1 (centres unmarked) [listing 1 of 2 here],> 5 µM
4,Cc1nnc(CCC(=O)N2CCc3[nH]cnc3C2c2nc3cc(F)ccc3s2)s1 (centres unmarked) [listing 1 of 2 here],> 5 µM
5,O=C(CCc1nccs1)N1CCc2[nH]cnc2C1c1nc2cc(F)ccc2s1 (centres unmarked) [listing 1 of 2 here],> 5 µM
6,O=C(Cc1nccs1)N1CCc2[nH]cnc2C1c1nc2cc(F)ccc2s1 (centres unmarked) [listing 1 of 2 here],> 5 µM
7,O=C(Cc1nc(C(F)(F)F)cs1)N1CCc2[nH]cnc2C1c1nc2ccc(Cl)cc2[nH]1 (centres unmarked),> 5 µM
8,O=C(CCc1nccs1)N1CCc2[nH]cnc2C1c1nc2ccc(Cl)cc2s1 (centres unmarked) [listing 1 of 2 here],> 5 µM
9,O=C(Cc1nc(C(F)(F)F)cs1)N1CCc2[nH]cnc2C1c1nc2ccc(F)cc2[nH]1 (centres unmarked) [listing 1 of 2 here],> 5 µM
10,O=C(Cc1nccs1)N1CCc2[nH]cnc2C1c1nc2ccc(F)cc2[nH]1 (centres unmarked) [listing 1 of 2 here],> 5 µM
11,Cc1nnc(CCC(=O)N2CCc3[nH]cnc3C2c2nc3cccc(F)c3s2)s1 (centres unmarked) [listing 1 of 2 here],> 5 µM
12,O=C(Cc1nc2ccccc2s1)N1CCc2[nH]cnc2C1c1nc2ccccc2s1 (centres unmarked),1 to 5 µM
13,Cc1nnc(N2CCc3[nH]cnc3C2c2nc3ccccc3[nH]2)o1 (centres unmarked),> 5 µM
14,O=C(c1nc2ccc(F)cc2s1)N1CCc2[nH]cnc2C1c1nc2ccccc2s1 (centres unmarked) [listing 1 of 2 here],> 5 µM
15,O=C(c1ccon1)N1CCc2[nH]cnc2C1c1nc2ccccc2s1 (centres unmarked) [listing 1 of 2 here],> 5 µM
16,O=C(c1ccsn1)N1CCc2[nH]cnc2C1c1nc2ccccc2s1 (centres unmarked) [listing 1 of 2 here],> 5 µM
17,O=C(c1nc2ccccc2s1)N1CCc2[nH]cnc2C1c1nc2cc(F)ccc2s1 (centres unmarked) [listing 1 of 2 here],> 5 µM
18,O=C(c1nc2ccccc2s1)N1CCc2[nH]cnc2C1c1nc2c(F)cccc2s1 (centres unmarked) [listing 1 of 2 here],> 5 µM
19,O=C(c1ncco1)N1CCc2[nH]cnc2C1c1nc2ccccc2s1 (centres unmarked) [listing 1 of 2 here],> 5 µM
20,O=C(c1cnn2cccc(F)c12)N1CCc2[nH]cnc2C1c1nc2ccccc2s1 (centres unmarked) [listing 1 of 2 here],> 5 µM
21,COc1ccc2c(C(=O)N3CCc4[nH]cnc4C3c3nc4ccccc4s3)cnn2c1 (centres unmarked) [listing 1 of 2 here],> 5 µM
22,O=C(c1cc2ccccn2c1)N1CCc2[nH]cnc2C1c1nc2ccccc2s1 (centres unmarked),> 5 µM
23,O=C(C1CC1)N1CCc2[nH]cnc2C1c1nc2c(F)cccc2s1 (centres unmarked) [listing 1 of 2 here],> 5 µM
24,O=C(CC1CC1)N1CCc2[nH]cnc2C1c1nc2c(F)cccc2s1 (centres unmarked) [listing 1 of 2 here],> 5 µM

row,SMILES,AC50
1,N#Cc1ccn2ncc(C(=O)N3CCc4[nH]cnc4C3c3nc4ccc(Br)cc4[nH]3)c2c1 (centres unmarked) [listing 1 of 2 here],> 5 µM
2,O=C(c1nccs1)N1CCc2[nH]cnc2C1c1nc2cc(F)ccc2s1 (centres unmarked) [listing 1 of 2 here],> 5 µM
3,O=C(c1nccs1)N1CCc2nc[nH]c2C1c1nc2ccc(F)cc2s1 (centres unmarked) [listing 1 of 2 here],> 5 µM
4,O=C(c1oc(-c2ccccn2)nc1C1CC1)N1CCCc2[nH]cnc2C1c1nc2ccccc2[nH]1 (centres unmarked) [listing 1 of 2 here],> 5 µM
5,Cc1nnc(C(=O)N2CCc3[nH]cnc3C2c2nc3cc(Br)ccc3[nH]2)s1 (centres unmarked),> 5 µM
6,O=C(c1cnn2c(Br)cccc12)N1CCc2[nH]cnc2C1c1nc2ccc(Br)cc2[nH]1 (centres unmarked) [listing 1 of 2 here],> 5 µM
7,O=C(c1ncn2ccccc12)N1CCc2[nH]cnc2C1c1nc2ccc(Br)cc2[nH]1 (centres unmarked) [listing 1 of 2 here],> 5 µM
8,O=C(c1cnn2cc(Cl)ccc12)N1CCc2[nH]cnc2C1c1nc2ccc(Br)cc2[nH]1 (centres unmarked),> 5 µM
9,O=C(c1cnn2ccc(F)cc12)N1CCc2[nH]cnc2C1c1nc2ccc(Br)cc2[nH]1 (centres unmarked) [listing 1 of 2 here],> 5 µM
10,O=C(c1cnn2ccc(Cl)cc12)N1CCc2[nH]cnc2C1c1nc2ccc(Cl)cc2[nH]1 (centres unmarked) [listing 1 of 2 here],> 5 µM
11,Cc1ccc2c(C(=O)N3CCc4[nH]cnc4C3c3nc4ccc(Cl)cc4[nH]3)cnn2c1 (centres unmarked) [listing 1 of 2 here],> 5 µM
12,COc1ccn2ncc(C(=O)N3CCc4[nH]cnc4C3c3nc4ccc(Cl)cc4[nH]3)c2c1 (centres unmarked) [listing 1 of 2 here],> 5 µM
13,O=C(c1cnn2ccccc12)N1CCc2[nH]cnc2C1c1nc2ccc(F)cc2[nH]1 (centres unmarked) [listing 1 of 2 here],> 5 µM
14,O=C(c1ccon1)N1CCc2[nH]cnc2C1c1nc2ccc(F)cc2[nH]1 (centres unmarked) [listing 1 of 2 here],> 5 µM
15,O=C(c1nccs1)N1CCc2[nH]cnc2C1c1nc2cccc(F)c2[nH]1 (centres unmarked) [listing 1 of 2 here],> 5 µM
16,O=C(c1cnn2c(Br)cccc12)N1CCc2[nH]cnc2C1c1nc2ccc(Cl)cc2[nH]1 (centres unmarked) [listing 1 of 2 here],> 5 µM
17,O=C(c1nc2ccccc2s1)N1CCc2[nH]cnc2C1c1nc2ccc(F)cc2[nH]1 (centres unmarked) [listing 1 of 2 here],> 5 µM
18,O=C(Cc1nncs1)N1CCc2[nH]cnc2C1c1nc2ccccc2s1 (centres unmarked) [listing 2 of 2 here],1 to 5 µM
19,O=C(CCc1nccs1)N1CCc2[nH]cnc2C1c1nc2c(Br)cccc2s1 (centres unmarked),1 to 5 µM
20,O=C(CCc1nccs1)N1CCc2nc[nH]c2C1c1nc2c(Cl)cccc2s1 (centres unmarked),1 to 5 µM
21,Cc1nnc(CCC(=O)N2CCc3[nH]cnc3C2c2nc3c(F)cccc3s2)s1 (centres unmarked) [listing 2 of 2 here],1 to 5 µM
22,Cc1nnc(CCC(=O)N2CCc3[nH]cnc3C2c2nc3cc(F)ccc3s2)s1 (centres unmarked) [listing 2 of 2 here],1 to 5 µM
23,O=C(CCc1nccs1)N1CCc2[nH]cnc2C1c1nc2cc(F)ccc2s1 (centres unmarked) [listing 2 of 2 here],1 to 5 µM
24,CC(C)(C)CCC(=O)N1CCc2[nH]cnc2C1c1nc2cc(F)ccc2s1 (centres unmarked),1 to 5 µM

row,SMILES,AC50
1,O=C(Cc1nccs1)N1CCc2[nH]cnc2C1c1nc2cc(F)ccc2s1 (centres unmarked) [listing 2 of 2 here],1 to 5 µM
2,O=C(CCc1nccs1)N1CCc2[nH]cnc2C1c1nc2ccc(Cl)cc2s1 (centres unmarked) [listing 2 of 2 here],1 to 5 µM
3,Cc1nnc(CCC(=O)N2CCc3[nH]cnc3C2c2nc3ccc(F)cc3[nH]2)s1 (centres unmarked),> 5 µM
4,O=C(Cc1nccs1)N1CCc2[nH]cnc2C1c1nc2ccc(F)cc2[nH]1 (centres unmarked) [listing 2 of 2 here],1 to 5 µM
5,O=C(Cc1nc(C(F)(F)F)cs1)N1CCc2[nH]cnc2C1c1nc2ccc(F)cc2[nH]1 (centres unmarked) [listing 2 of 2 here],1 to 5 µM
6,CC(C)(C)CCC(=O)N1CCc2[nH]cnc2C1c1nc2ccc(F)cc2s1 (centres unmarked),1 to 5 µM
7,Cc1nnc(CCC(=O)N2CCc3nc[nH]c3C2c2nc3ccc(F)cc3s2)s1 (centres unmarked),1 to 5 µM
8,Cc1nnc(CCC(=O)N2CCc3[nH]cnc3C2c2nc3cccc(F)c3s2)s1 (centres unmarked) [listing 2 of 2 here],1 to 5 µM
9,O=C(c1nc2ccc(F)cc2s1)N1CCc2[nH]cnc2C1c1nc2ccccc2s1 (centres unmarked) [listing 2 of 2 here],1 to 5 µM
10,O=C(c1ccon1)N1CCc2[nH]cnc2C1c1nc2ccccc2s1 (centres unmarked) [listing 2 of 2 here],1 to 5 µM
11,O=C(c1ccsn1)N1CCc2[nH]cnc2C1c1nc2ccccc2s1 (centres unmarked) [listing 2 of 2 here],1 to 5 µM
12,O=C(c1nc2ccccc2s1)N1CCc2[nH]cnc2C1c1nc2c(F)cccc2s1 (centres unmarked) [listing 2 of 2 here],1 to 5 µM
13,O=C(c1nc2ccccc2s1)N1CCc2[nH]cnc2C1c1nc2ccc(F)cc2s1 (centres unmarked),1 to 5 µM
14,O=C(c1nc2ccccc2s1)N1CCc2[nH]cnc2C1c1nc2cc(F)ccc2s1 (centres unmarked) [listing 2 of 2 here],1 to 5 µM
15,O=C(c1ncco1)N1CCc2[nH]cnc2C1c1nc2ccccc2s1 (centres unmarked) [listing 2 of 2 here],1 to 5 µM
16,O=C(c1cnn2cccc(F)c12)N1CCc2[nH]cnc2C1c1nc2ccccc2s1 (centres unmarked) [listing 2 of 2 here],1 to 5 µM
17,COc1ccc2c(C(=O)N3CCc4[nH]cnc4C3c3nc4ccccc4s3)cnn2c1 (centres unmarked) [listing 2 of 2 here],1 to 5 µM
18,O=C(C1CC1)N1CCc2[nH]cnc2C1c1nc2c(F)cccc2s1 (centres unmarked) [listing 2 of 2 here],1 to 5 µM
19,Clc1csc(CN2CCc3[nH]cnc3C2c2nc3ccccc3[nH]2)n1 (centres unmarked),> 5 µM
20,Cc1nnc(CN2CCc3[nH]cnc3C2c2nc3ccccc3[nH]2)s1 (centres unmarked),> 5 µM
21,Clc1ccc2nc(C3c4nc[nH]c4CCN3Cc3nccs3)[nH]c2c1 (centres unmarked),> 5 µM
22,O=C(CC1CC1)N1CCc2[nH]cnc2C1c1nc2c(F)cccc2s1 (centres unmarked) [listing 2 of 2 here],1 to 5 µM
23,N#Cc1ccn2ncc(C(=O)N3CCc4[nH]cnc4C3c3nc4ccc(Br)cc4[nH]3)c2c1 (centres unmarked) [listing 2 of 2 here],1 to 5 µM
24,N#Cc1ccn2ncc(C(=O)N3CCc4[nH]cnc4C3c3nc4ccc(Cl)cc4[nH]3)c2c1 (centres unmarked),> 5 µM

row,SMILES,AC50
1,Nc1nnc(CCC(=O)N2CCc3[nH]cnc3C2c2nc3ccccc3s2)s1 (centres unmarked),> 5 µM
2,c1ccc2[nH]c(C3c4nc[nH]c4CCN3Cc3cncs3)nc2c1 (centres unmarked),> 5 µM
3,O=C(c1nccs1)N1CCc2[nH]cnc2C1c1nc2cc(F)ccc2s1 (centres unmarked) [listing 2 of 2 here],1 to 5 µM
4,O=C(c1nccs1)N1CCc2nc[nH]c2C1c1nc2ccc(F)cc2s1 (centres unmarked) [listing 2 of 2 here],1 to 5 µM
5,O=C(c1cnn2c(Br)cccc12)N1CCc2[nH]cnc2C1c1nc2ccccc2[nH]1 (centres unmarked),1 to 5 µM
6,O=C(c1nnc(-c2ccccn2)o1)N1CCc2[nH]cnc2C1c1nc2ccccc2[nH]1 (centres unmarked),1 to 5 µM
7,Cc1nnc(C(=O)N2CCc3[nH]cnc3C2c2nc3ccccc3[nH]2)o1 (centres unmarked),1 to 5 µM
8,O=C(c1oc(-c2ccccn2)nc1C1CC1)N1CCCc2[nH]cnc2C1c1nc2ccccc2[nH]1 (centres unmarked) [listing 2 of 2 here],1 to 5 µM
9,O=C(c1nnc(-c2ccccn2)o1)N1CCCc2[nH]cnc2C1c1nc2ccccc2[nH]1 (centres unmarked),> 5 µM
10,O=C(c1ncn2ccccc12)N1CCc2[nH]cnc2C1c1nc2ccc(Br)cc2[nH]1 (centres unmarked) [listing 2 of 2 here],1 to 5 µM
11,Cc1ccc2c(C(=O)N3CCc4[nH]cnc4C3c3nc4ccc(Br)cc4[nH]3)cnn2c1 (centres unmarked),> 5 µM
12,O=C(c1cnn2c(Br)cccc12)N1CCc2[nH]cnc2C1c1nc2ccc(Br)cc2[nH]1 (centres unmarked) [listing 2 of 2 here],1 to 5 µM
13,O=C(c1cnn2cccc(F)c12)N1CCc2[nH]cnc2C1c1nc2ccc(Br)cc2[nH]1 (centres unmarked),> 5 µM
14,O=C(c1cnn2ccc(F)cc12)N1CCc2[nH]cnc2C1c1nc2ccc(Br)cc2[nH]1 (centres unmarked) [listing 2 of 2 here],1 to 5 µM
15,Cc1ccc2c(C(=O)N3CCc4[nH]cnc4C3c3nc4ccc(Cl)cc4[nH]3)cnn2c1 (centres unmarked) [listing 2 of 2 here],1 to 5 µM
16,COc1ccn2ncc(C(=O)N3CCc4[nH]cnc4C3c3nc4ccc(Cl)cc4[nH]3)c2c1 (centres unmarked) [listing 2 of 2 here],1 to 5 µM
17,O=C(c1cnn2cc(Cl)ccc12)N1CCc2[nH]cnc2C1c1nc2ccc(Cl)cc2[nH]1 (centres unmarked),> 5 µM
18,O=C(c1cnn2ccc(Cl)cc12)N1CCc2[nH]cnc2C1c1nc2ccc(Cl)cc2[nH]1 (centres unmarked) [listing 2 of 2 here],1 to 5 µM
19,O=C(c1cnn2ccccc12)N1CCc2[nH]cnc2C1c1nc2ccc(F)cc2[nH]1 (centres unmarked) [listing 2 of 2 here],1 to 5 µM
20,O=C(c1ccon1)N1CCc2[nH]cnc2C1c1nc2ccc(F)cc2[nH]1 (centres unmarked) [listing 2 of 2 here],1 to 5 µM
21,O=C(c1nccs1)N1CCc2[nH]cnc2C1c1nc2cccc(F)c2[nH]1 (centres unmarked) [listing 2 of 2 here],1 to 5 µM
22,O=C(c1cnn2c(Br)cccc12)N1CCc2[nH]cnc2C1c1nc2ccc(Cl)cc2[nH]1 (centres unmarked) [listing 2 of 2 here],1 to 5 µM
23,O=C(c1nc2ccccc2s1)N1CCc2[nH]cnc2C1c1nc2ccc(F)cc2[nH]1 (centres unmarked) [listing 2 of 2 here],1 to 5 µM
